Experimental data published in publication PMC10541198, “Specific quinone reductase 2 inhibitors reduce metabolic burden and reverse Alzheimer’s disease phenotype in mice” (The Journal of Clinical Investigation, 2023).
“And” between values parts separate entries of the source, which are not always exact repeats. Equal entries are not always repeated.

System: eIF2α
Assay: Immunoblot of total and phosphorylated eIF2α 3 hours after CA1 microinjection
Type: in vivo, mouse
Procedure: In order to evaluate the efficacy of some of the leading QR2is in vivo, we carried out double-blind experiments using 2 different modalities (Supplemental Methods), measuring memory that is dependent on different brain areas. First, cortical memory was tested using incidental novel taste learning (see Methods), in which an unfamiliar, but palatable and safe, taste is given for the first time, and the memory for this newly learned taste is then assessed 2 days later. This is done by measuring the volume of the taste consumed upon subsequent exposure to it ([32]) (Figure 4A). […] Next, hippocampal-dependent learning was evaluated using delay fear conditioning (DFC; see Methods) ([33]). Mice were cannulated to the CA1 region of the hippocampus and were microinjected with YB-537 (1 μL of 5 μM, Figure 4, D and H) or vehicle. […] In order to evaluate any possible effect of acute QR2i microinjection on metabolic stress in the mouse brain, ISR activation was measured by quantifying total and phosphorylated eukaryotic initiation factor 2 α (eIF2α) levels (Supplemental Figure 3A) and lipid peroxidation product, 4-hydroxynonenal (4-HNE; Supplemental Figure 3B), by immunoblot 3 hours after the injection. […]

## Cc1ccc(-c2cn3cccc(C)c3n2)cc1S(=O)(=O)N1CCNCC1 [YB-537]
3 hours after microinjection in the mouse hippocampus
  eIF2α phosphorylation levels: insignificant reduction
3 hours after microinjection, Sup. Fig. 3A
  eIF2α phosphorylation, immunoblot (individual mice): 1.423 and 1.158 and 1.034 and 0.527 and 1.086 and 1.215 and 0.836
